Tested on: panel members
Test: Panel-mediated testing of Cannabis accessions with defined cannabinoid profiles (panel N=67, plus anecdotal evidence)
Type: in vivo, human
Text: This method allowed deduction, and therefore, for the first time, the introduction of a new chemotaxonomic classification system merely based on the cannabinoid composition of the plant samples (strains). 15 chemotypes are defined and many more sub-chemotypes are lately added. The samples given to panel members (accessions) contained Cannabis flos, the dried flower tips of the female Cannabis plant. […] All the 45,000 different “strains” were collected and compared to the panel data and data derived from retrospective (meta-) research and anecdotal evidence mainly originated from users, for both recreative and medicinal usage, from the Netherlands. Accession from Spain is included as a parameter and seemed important for the chemotaxonomic scheme for Cannabis species.
The anecdotal evidence is derived from and the panel members are selected from persons, men and women, of the age of 18 till 72 years old. They consumed cannabis joints or vapor having defined cannabinoid profiles, and record the effect during time. Monitoring takes 24 hours, to include data about wear-off problems after night (the next day). The cannabinoids according to the invention may for example be consumed as follows: • 1—Administered as Cannabis simplex per 50 mg unit dose for self-titration. […]

CCCCCc1cc(O)c(C/C=C(\C)CCC=C(C)C)c(O)c1 [Cannabigerol]
sleep attained by subjects (all subjects, in high concentration range "narcotic"): good or very good deep | Effects (panel session, vapor, joints or tea potion, ad libitum, effects dosage and patient related): “indica” or “stoned” effects; drowsiness
